# Several values for one entry are separate records, joined by “and”; a condition that tells them apart may be missing. Equal values may be shown once. Read-outs that look alike come from different tables or passages of the source.
# System: non-senescent control IMR90 ER:RAS cells
# Assay: Nuclei count (Hoechst, high content imaging) senolytic assay, OIS model, non-senescent control cells
# Format: cell-based, human
# Text: To test for senolytic activity, we compared the effect of each compound on the total cell number (automated high content image-based analysis of total number of nuclei per well) in non-senescent and senescent IMR90 ER:RAS cultures treated with the top hits from the computational screen (Figs. 2e and 3a–d and Supplementary Fig. 4a–c). The drop in cell number compared to untreated controls is indicated by the nuclei count and reflects cell death[13],[15]. As positive control, we employed ouabain, a cardiac glycoside with well characterised senolytic activity.
# We performed experimental validation of the compounds with z-score > 8 (Fig. 2e). […] We employed two cellular models of senescence: one of OIS and a second one of TIS. For the OIS case, we utilised IMR90 ER:RAS cells with 4-OHT at 100 nM. […] For the TIS model, we used A549 cells with etoposide at 100 μM. The exposure of the cells to etoposide lasted 48 h, after which period the cells were cultivated for a further three days with normal media.
# IMR90 (CCL-186) human foetal lung fibroblasts and A549 (CCL-185) human lung adenocarcinoma cells were obtained from the American Type Culture Collection (ATCC, Manassas, VA). The cell lines were confirmed to be mycoplasma negative (Lonza MycoAlert, cat #LT07-118). IMR90 ER:RAS is a derivative of IMR90 cells expressing a switchable version of oncogenic H-Ras[84]. IMR90 ER:RAS and A549 cells were maintained in Dulbecco’s Modified Eagle Medium (DMEM, ThermoFisher) supplemented with foetal bovine serum (10%), L-glutamine (2 mM, ThermoFisher), and antibiotic-antimycotic solution (1%, ThermoFisher) and incubated under standard tissue culture conditions (37 °C and 5% CO2). For induction of the senescent phenotype, IMR90-ER:RAS cells were cultured in hydroxytamoxifen (4-OHT) (Sigma) added media at 100 nM final concentration. IMR90 were kept in culture for over 27 passages for replicative senescence. Cells were tested for mycoplasma on a regular basis.
# Cells were seeded (50 μL per well) into 384-well plates (IMR90 ER:RAS cells in Nunc Optical Bottom Polybase Microplates [#142761, Thermo Scientific, Rochester, NY] and A549 cells in CELLSTAR Cell Culture Microplates [#781091, Greiner Bio-One, Kremsmünster, Austria]). Cells were incubated under standard tissue culture conditions for 24 h before the addition of compounds. Passage 14 IMR90 ER:RAS cells were seeded at 1300 cells per well in the control condition, and at 1600 cells per well in the senescent case. Passage 34 A549 cells were seeded at 7000 cells per well in the control condition, and at 10,000 cells per well in the senescent case.
# Dose response plates were prepared with a DMSO control and a 10-point […] concentration range, and added to the compounds using a D300e digital dispenser (Tecan Trading AG, Switzerland) at a final concentration of between 10 μM and 10 nM. Every screened condition was carried out in triplicate. After 72 h of incubation with exposure to the compounds, cells were fixed by the addition of an equal volume of formaldehyde (8%, 50 μL; #BP531-500, Fisher Bioreagents, Fisher Scientific, Loughborough, Leicestershire) to the existing media, incubated at room temperature (30 min), and washed three times in phosphate-buffered saline (PBS). Cells were then permeabilised in Triton-X100 (0.1%, 50 μL) and incubated at room temperature (30 min) followed by three more washes with PBS.
# Cells were stained with Hoechst 33342 for nuclei count (excitation/emission wavelength at 387/447 […], DAPI channel, original concentration at 10 mg/ml, final concentration at 2 μg/ml; H1399, Molecular Probes, Eugene, OR). The staining solution was prepared in bovine serum albumin solution (10%). The staining solution was added to each well (30 μL) and incubated in the dark at room temperature (30 min), followed by three washes with PBS and no final aspiration. Plates were foil sealed.
# [1] = Homo sapiens, IMR-90, 72 h, Control, log (dose) [M] -5, 72 h, mean n=3 (Fig 3C), read-out: Mean % Cell Survival
# [2] = Homo sapiens, IMR-90, 72 h, Control, log (dose) [M] -5.33, 72 h, mean n=3 (Fig 3C), read-out: Mean % Cell Survival
# [3] = Homo sapiens, IMR-90, 72 h, Control, log (dose) [M] -5.66, 72 h, mean n=3 (Fig 3C), read-out: Mean % Cell Survival
# [4] = Homo sapiens, IMR-90, 72 h, Control, log (dose) [M] -6, 72 h, mean n=3 (Fig 3C), read-out: Mean % Cell Survival
# [5] = Homo sapiens, IMR-90, 72 h, Control, log (dose) [M] -6.33, 72 h, mean n=3 (Fig 3C), read-out: Mean % Cell Survival
# [6] = Homo sapiens, IMR-90, 72 h, Control, log (dose) [M] -6.66, 72 h, mean n=3 (Fig 3C), read-out: Mean % Cell Survival
# [7] = Homo sapiens, IMR-90, 72 h, Control, log (dose) [M] -7, 72 h, mean n=3 (Fig 3C), read-out: Mean % Cell Survival
# [8] = Homo sapiens, IMR-90, 72 h, Control, log (dose) [M] -7.33, 72 h, mean n=3 (Fig 3C), read-out: Mean % Cell Survival
# [9] = Homo sapiens, IMR-90, 72 h, Control, log (dose) [M] -7.66, 72 h, mean n=3 (Fig 3C), read-out: Mean % Cell Survival
# [10] = Homo sapiens, IMR-90, 72 h, Control, log (dose) [M] -8, 72 h, mean n=3 (Fig 3C), read-out: Mean % Cell Survival
# [11] = Homo sapiens, IMR-90, Control, log (dose) [M] -5.33, read-out: % Cell Survival
# [12] = Homo sapiens, IMR-90, Control, log (dose) [M] -7, read-out: % Cell Survival
# [13] = Homo sapiens, IMR-90, Control, log (dose) [M] -7.33, read-out: % Cell Survival
# [14] = Homo sapiens, IMR-90, Control, log (dose) [M] -7.66, read-out: % Cell Survival
# [15] = Homo sapiens, IMR-90, Control, log (dose) [M] -8, read-out: % Cell Survival
smiles,measurement,setting,value
"CO[C@H]1C[C@@H]2CC[C@@H](C)[C@@](O)(O2)C(=O)C(=O)N2CCCC[C@H]2C(=O)O[C@H]([C@H](C)C[C@@H]2CC[C@@H](OCCO)[C@H](OC)C2)CC(=O)[C@H](C)/C=C(\C)[C@@H](O)[C@@H](OC)C(=O)[C@H](C)C[C@H](C)/C=C/C=C/C=C/1C [Everolimus, everolimus, reference compound]",viability at 10 µM,[1],107%
same,viability at 4.677 µM,[2],109%
same,viability at 2.188 µM,[3],107%
same,viability at 1 µM,[4],104%
same,viability at 0.4677 µM,[5],105%
same,viability at 0.2188 µM,[6],100%
same,viability at 0.1 µM,[7],109%
same,viability at 0.04677 µM,[8],105%
same,viability at 0.02188 µM,[9],102%
same,viability at 0.01 µM,[10],104%
same,viability at 4.68 µM,[11],107%
same,viability at 2.19 µM,"Homo sapiens, IMR-90, Control, log (dose) [M] -5.66, read-out: % Cell Survival",108%
same,viability at 1 µM,"Homo sapiens, IMR-90, Control, log (dose) [M] -6, read-out: % Cell Survival",106%
same,viability at 0.468 µM,"Homo sapiens, IMR-90, Control, log (dose) [M] -6.33, read-out: % Cell Survival",92.7%
same,viability at 0.219 µM,"Homo sapiens, IMR-90, Control, log (dose) [M] -6.66, read-out: % Cell Survival",109%
same,viability at 0.1 µM,[12],105%
same,viability at 0.04677 µM,[13],116%
same,viability at 0.0219 µM,[14],115%
same,viability at 0.01 µM,[15],118%
"CC(C)=CCc1c(O)cc2oc3cc(O)c(O)c(CC=C(C)C)c3c(=O)c2c1O [Gamma mangostin, gamma mangostin]",% Cell Survival,"Control cells, log (dose) [M] -5, individual replicates, SUP FIG 4C",83.3507% and 108.05% and 79.5367% and 95.8097%
same,% Cell Survival,"Control cells, log (dose) [M] -5.33, individual replicates, SUP FIG 4C",87.0968% and 96.0317% and 81.9498% and 89.128%
same,% Cell Survival,"Control cells, log (dose) [M] -5.66, individual replicates, SUP FIG 4C",85.64% and 147.846% and 85.3282% and 103.058%
same,% Cell Survival,"Control cells, log (dose) [M] -6, individual replicates, SUP FIG 4C",61.4984% and 93.424% and 84.0734% and 96.1495%
same,% Cell Survival,"Control cells, log (dose) [M] -6.33, individual replicates, SUP FIG 4C",89.5942% and 95.6916% and 116.216% and 74.9717%
same,% Cell Survival,"Control cells, log (dose) [M] -6.66, individual replicates, SUP FIG 4C",89.282% and 97.3923% and 91.7954% and 95.8097%
same,% Cell Survival,"Control cells, log (dose) [M] -7, individual replicates, SUP FIG 4C",92.924% and 97.5057% and 90.1544% and 99.6602%
same,% Cell Survival,"Control cells, log (dose) [M] -7.33, individual replicates, SUP FIG 4C",93.7565% and 97.2789% and 93.4363% and 109.513%
same,% Cell Survival,"Control cells, log (dose) [M] -7.66, individual replicates, SUP FIG 4C",96.9823% and 99.8866% and 98.9382% and 108.494%
same,% Cell Survival,"Control cells, log (dose) [M] -8, individual replicates, SUP FIG 4C",107.7% and 97.0522% and 93.3398% and 109.173%
same,Mean % Cell Survival,"Control, log (dose) [M] -5, 72 h, mean n=3 (Fig 3C)",91.6867%
same,Mean % Cell Survival,"Control, log (dose) [M] -5.33, 72 h, mean n=3 (Fig 3C)",88.5516%
same,Mean % Cell Survival,"Control, log (dose) [M] -5.66, 72 h, mean n=3 (Fig 3C)",105.468%
same,Mean % Cell Survival,"Control, log (dose) [M] -6, 72 h, mean n=3 (Fig 3C)",83.7863%
same,Mean % Cell Survival,"Control, log (dose) [M] -6.33, 72 h, mean n=3 (Fig 3C)",94.1184%
same,Mean % Cell Survival,"Control, log (dose) [M] -6.66, 72 h, mean n=3 (Fig 3C)",93.5698%
same,Mean % Cell Survival,"Control, log (dose) [M] -7, 72 h, mean n=3 (Fig 3C)",95.0611%
same,Mean % Cell Survival,"Control, log (dose) [M] -7.33, 72 h, mean n=3 (Fig 3C)",98.4962%
same,Mean % Cell Survival,"Control, log (dose) [M] -7.66, 72 h, mean n=3 (Fig 3C)",101.075%
same,Mean % Cell Survival,"Control, log (dose) [M] -8, 72 h, mean n=3 (Fig 3C)",101.816%
same,% Cell Survival,"Control, log (dose) [M] -5",92.5926% and 96.693% and 91.9267%
same,% Cell Survival,"Control, log (dose) [M] -5.33",94.2308% and 86.4127% and 82.768%
same,% Cell Survival,"Control, log (dose) [M] -5.66",90.6695% and 83.6808% and 81.9539%
same,% Cell Survival,"Control, log (dose) [M] -6",85.6125% and 87.1316% and 81.6147%
same,% Cell Survival,"Control, log (dose) [M] -6.33",95.7977% and 84.3997% and 85.8209%
same,% Cell Survival,"Control, log (dose) [M] -6.66",91.7379% and 85.9813% and 84.5319%
same,% Cell Survival,"Control, log (dose) [M] -7",95.6553% and 92.739% and 90.502%
same,% Cell Survival,"Control, log (dose) [M] -7.33",96.8661% and 91.0137% and 90.4342%
same,% Cell Survival,"Control, log (dose) [M] -7.66",96.7236% and 96.7649% and 94.3691%
same,% Cell Survival,"Control, log (dose) [M] -8",100.783% and 103.882% and 95.7938%
"COc1cc(/C=C/C(=O)O[C@H]2CC[C@]34C[C@]35CC[C@]3(C)[C@@H]([C@H](C)CCC=C(C)C)CC[C@@]3(C)[C@@H]5CC[C@H]4C2(C)C)ccc1O [Gamma oryzanol, gamma oryzanol]",viability at 10 µM,[1],87.1%
same,viability at 4.677 µM,[2],92.9%
same,viability at 2.188 µM,[3],89.6%
same,viability at 1 µM,[4],86.2%
same,viability at 0.4677 µM,[5],98.4%
same,viability at 0.2188 µM,[6],99.1%
same,viability at 0.1 µM,[7],109%
same,viability at 0.04677 µM,[8],133%
same,viability at 0.02188 µM,[9],118%
same,viability at 0.01 µM,[10],115%
same,viability at 0.2188 µM,"Homo sapiens, IMR-90, Control cells, log (dose) [M] -6.66, individual replicates, SUP FIG 4C, read-out: % Cell Survival",93.2%
same,viability at 10 µM,"Homo sapiens, IMR-90, Control, log (dose) [M] -5, read-out: % Cell Survival",113%
same,viability at 4.68 µM,[11],105%
same,viability at 0.1 µM,[12],103%
same,viability at 0.04677 µM,[13],103%
same,viability at 0.0219 µM,[14],104%
same,viability at 0.01 µM,[15],100%

# From article PMC10257182, “Discovery of senolytics using machine learning” (Nature Communications, 2023)
